“And” between values parts separate entries of the source, which are not always exact repeats. Identical values can stand only once.
What was measured:
Assay type in all cases: cell-based
[1] = tested on: Normal Human Epidermal Keratinocytes (NHEK); assay: Osmoprotective effect on keratinocytes under hyper-osmotic conditions (NaCl 150 mM), flow cytometry
Method: (§1) The type of cells use for this study were Normal Human Epidermal Keratinocytes (NHEK), Bioalternatives reference K341 used at the 3rd passage. The culture conditions were: 37° C., 5% CO2. The culture medium is referred to as “keratinocyte-SFM” supplemented with Epidermal Growth Factor (EGF) 0.25 ng/ml, Pituitary extract (PE) 25 μg/ml, Gentamycin 25 μg/ml. The assay medium was “keratinocyte-SFM” supplemented with gentamycin 25 μg/ml.
(§2) Keratinocytes (NHEK) were seeded in 24-well plates and cultured for 24 hours in culture medium. The medium was then replaced by assay medium containing or not (control) the single osmolyte or the combination of osmolytes C1 or C2 and cells were pre-incubated for 24 hours.
For hyper-osmotic conditions, the medium was removed and replaced by assay medium containing NaCl at 150 mM and containing the single osmolyte or the combination of osmolytes (C1 or C2). The cells were then incubated for 48 hours. In parallel, a normo-osmotic control (no osmotic stress control) was performed.
(§3) At the end of incubation, culture medium was removed and the cells were rinsed with a PBS solution. The cells were then detached using trypsin treatment and transferred into tubes. After several washes in PBS/BSA 0.2%, the cells were labeled with a propidium iodide (PI) solution (staining of dead cells).
(§4) Cell populations were then analyzed for number (total number of event per well during a fixed time), size (FSC), granularity (SSC) and viability parameters (% PI-positive cells, equivalent to % dead cells) by flow cytometry using BD FACSVerse™ flow cytometer. • Acquisition 1 represents the number of events (=number of cells) passing one by one in front of the cytometer laser over a fixed time. It doesn't distinct dead or living cells at this step. By subtracting the number of events (in hyperosmotic or irradiated condition) from the total number of events in normoosmotic conditions, it is possible to calculate the number of cells that have been lysed due to the stress conditions. • Acquisition 2, represents, on a fixed number of events, 1) the detection of the light scattered when the cells are crossing the laser, FSC-A, from which can be calculated the cell size, 2) the detection of the cells stained by Propidium Iodide (dead cells) from which can be calculated the % of viable cells.

[2] = tested on: Normal Human Epidermal Keratinocytes (NHEK); assay: Protection of keratinocytes under UV-irradiated conditions (UVB 250 mJ/cm2), flow cytometry
Method: as §1, §2
For UV-irradiated conditions, the medium was then removed and replaced by assay medium and the cells were irradiated with UVB at 250 mJ/cm2 (+UVA at 1.6 J/cm2). The lamp used was a SOL500 Sun simulator equipped with an H2 filter (Dr. Hole, AG). A non-irradiated control condition was performed in parallel. After irradiation, the medium was removed and replaced by assay medium containing or not (control) the single osmolyte or the combination of osmolytes (C1 or C2) and the cells were incubated for 48 hours.
as §3, §4

[3] = tested on: Normal Human Epidermal Keratinocytes (NHEK); assay: Protection of keratinocytes under UV-irradiated and hyper-osmotic conditions, flow cytometry; settings: NaCl 150 mM + UVB 250 mj/cm^2
Method: as §1, §2
For UV-irradiated and hyper-osmotic conditions, the medium was then removed and replaced by assay medium and the cells were irradiated with UVB at 250 mJ/cm2 (+UVA at 1.6 J/cm2). The lamp used was a SOL500 Sun simulator equipped with an H2 filter (Dr. Höle, AG). After irradiation, the medium was removed and replaced by assay medium containing NaCl at 150 mM (hyperosmotic conditions) and containing the single osmolyte or the combination of osmolytes (C1 or C2) and the cells were then incubated for 48 hours. In parallel, a non-irradiated and normo-osmotic control was performed.
as §3, §4

[4] = tested on: Reconstructed Human Epidermis (RHE); assay: Caffein diffusion test on Reconstituted Human Epidermis (RHE); settings: for caffein diffusion through RHE: systemic treatment
Method: By measuring the amount of […] […] The epidermis used was a Reconstructed Human Epidermis, called “RHE”, 0-day-old, batch no 01015-444, placed in culture conditions 37° C., 5% CO2. The assay medium was the Bioalternatives maintenance medium. RHE at Day 0 (when placed at the air/liquid interface) were placed in assay medium containing or not (control) the compounds, the combination or the reference (vitamin C at 200 μg/ml). This is referred to as a systemic application, to be differentiated from a topical application. RHE were then incubated for 7 days with treatment renewal at Day 3 and Day 5. All experimental conditions were performed in n=3. At the end of incubation (Day 7), radioactive […] ([^14[…] applied on the surface of each epidermis. The radioactivity contained in subnatants was measured by liquid scintillation after 30 minutes, 1, 2, 3, 4, 5, 6, 7 and 8 hours of incubation. The barrier function is calculated according to the below formula:

O=C(O)[C@@H]1CCCN1 [L-Proline]
% cell size difference compared to control hyperosmotic stress condition under 150 mM NaCl ([1]; 3 mg/ml total osmolytes): +4%
% cell size difference compared to control hyperosmotic stress condition under 150 mM NaCl ([1]; 10 mg/ml total osmolytes): +13%
viability at 3000 µg/mL ([1]; Homo sapiens, NHEK, NaCl 150 mM 48 h, 3 mg/ml, read-out: Cell viability, % hyperosmotic control): 143%
Lysed cells, % normo-osmotic control (% cell lysis) ([1]; NaCl 150 mM 48 h, 3 mg/ml): 67.2%
Lysed cells: Mean number of event per well normo-osmotic control − Mean number of event per well hyperosmotic conditions ([1]; NaCl 150 mM 48 h, 3 mg/ml): 73197
Mean % viable cells = 100-% PI-positive cells = 100-% dead cells ([1]; NaCl 150 mM 48 h, 3 mg/ml): 69.6%
Mean cell size FSC-A (au) ([1]; NaCl 150 mM 48 h, 3 mg/ml): 68417 au
Total number of events per well, % hyperosmotic control ([1]; NaCl 150 mM 48 h, 3 mg/ml): 130%
Total number of events per well, Mean (au) ([1]; NaCl 150 mM 48 h, 3 mg/ml): 18676 au
Cell size, % hyperosmotic control ([1]; NaCl 150 mM 48 h, 10 mg/ml): 113%
Lysed cells, % normo-osmotic control (% cell lysis) ([1]; NaCl 150 mM 48 h, 10 mg/ml): 41.7% and 67.2%
Lysed cells: Mean number of event per well normo-osmotic control − Mean number of event per well hyperosmotic conditions ([1]; NaCl 150 mM 48 h, 10 mg/ml): 56995
Mean cell size FSC-A (au) ([1]; NaCl 150 mM 48 h, 10 mg/ml): 74581 au
Total number of events per well, % hyperosmotic control ([1]; NaCl 150 mM 48 h, 10 mg/ml): 243%
Total number of events per well, Mean (au) ([1]; NaCl 150 mM 48 h, 10 mg/ml): 34878 au
viability at 3000 µg/mL ([2]; Homo sapiens, NHEK, light or radiation study, UVB 250 mj/cm^2, 3 mg/ml, read-out: Cell viability, % hyperosmotic control): 103%
effect on cells submitted to UVB irradiation ([2]; UVB 250 mJ/cm^2 alone or in combination with hyperosmotic stress): no clear effect
Cell size, % hyperosmotic control ([2]; UVB 250 mj/cm^2, 3 mg/ml): 110%
Mean % viable cells = 100-% PI-positive cells = 100-% dead cells ([2]; UVB 250 mj/cm^2, 3 mg/ml): 86.4%
Mean cell size FSC-A (au) ([2]; UVB 250 mj/cm^2, 3 mg/ml): 100519 au
Cell size, % hyperosmotic control ([2]; UVB 250 mj/cm^2, 10 mg/ml): 110%
Mean cell size FSC-A (au) ([2]; UVB 250 mj/cm^2, 10 mg/ml): 101243 au
Cell size, % hyperosmotic control ([3]; 3 mg/ml): 102%
Mean cell size FSC-A (au) ([3]; 3 mg/ml): 69601 au
Cell size, % hyperosmotic control ([3]; 10 mg/ml): 100%
Mean cell size FSC-A (au) ([3]; 10 mg/ml): 68169 au
Barrier function % Control ([4]; 0.5 hrs, 3 mg/ml): 96%
Mean [14C]-caffein (cpm) ([4]; 0.5 hrs, 3 mg/ml): 20720 cpm
[14C]-caffein % Control ([4]; 0.5 hrs, 3 mg/ml): 105%
Barrier function % Control ([4]; 0.5 hrs, 10 mg/ml): 98%
Mean [14C]-caffein (cpm) ([4]; 0.5 hrs, 10 mg/ml): 20193 cpm
[14C]-caffein % Control ([4]; 0.5 hrs, 10 mg/ml): 103%
Barrier function % Control ([4]; 1 hrs, 3 mg/ml): 97%
Mean [14C]-caffein (cpm) ([4]; 1 hrs, 3 mg/ml): 47352 cpm
[14C]-caffein % Control ([4]; 1 hrs, 3 mg/ml): 104%
Barrier function % Control ([4]; 1 hrs, 10 mg/ml): 100%
Mean [14C]-caffein (cpm) ([4]; 1 hrs, 10 mg/ml): 45495 cpm
[14C]-caffein % Control ([4]; 1 hrs, 10 mg/ml): 100%
Barrier function % Control ([4]; 2 hrs, 3 mg/ml): 94%
Mean [14C]-caffein (cpm) ([4]; 2 hrs, 3 mg/ml): 106026 cpm
[14C]-caffein % Control ([4]; 2 hrs, 3 mg/ml): 106%
Barrier function % Control ([4]; 2 hrs, 10 mg/ml): 98%
Mean [14C]-caffein (cpm) ([4]; 2 hrs, 10 mg/ml): 102027 cpm
[14C]-caffein % Control ([4]; 2 hrs, 10 mg/ml): 102%
Barrier function % Control ([4]; 3 hrs, 3 mg/ml): 93%
Mean [14C]-caffein (cpm) ([4]; 3 hrs, 3 mg/ml): 147545 cpm
[14C]-caffein % Control ([4]; 3 hrs, 3 mg/ml): 108%
Barrier function % Control ([4]; 3 hrs, 10 mg/ml): 98%
Mean [14C]-caffein (cpm) ([4]; 3 hrs, 10 mg/ml): 140203 cpm
[14C]-caffein % Control ([4]; 3 hrs, 10 mg/ml): 102%
Barrier function % Control ([4]; 4 hrs, 3 mg/ml): 93%
Mean [14C]-caffein (cpm) ([4]; 4 hrs, 3 mg/ml): 169001 cpm
[14C]-caffein % Control ([4]; 4 hrs, 3 mg/ml): 107%
Barrier function % Control ([4]; 4 hrs, 10 mg/ml): 97%
Mean [14C]-caffein (cpm) ([4]; 4 hrs, 10 mg/ml): 162571 cpm
[14C]-caffein % Control ([4]; 4 hrs, 10 mg/ml): 103%
Barrier function % Control ([4]; 5 hrs, 3 mg/ml): 93%
Mean [14C]-caffein (cpm) ([4]; 5 hrs, 3 mg/ml): 184911 cpm
[14C]-caffein % Control ([4]; 5 hrs, 3 mg/ml): 107%
Barrier function % Control ([4]; 5 hrs, 10 mg/ml): 98%
Mean [14C]-caffein (cpm) ([4]; 5 hrs, 10 mg/ml): 176461 cpm
[14C]-caffein % Control ([4]; 5 hrs, 10 mg/ml): 102%
Barrier function % Control ([4]; 6 hrs, 3 mg/ml): 94%
Mean [14C]-caffein (cpm) ([4]; 6 hrs, 3 mg/ml): 190819 cpm
[14C]-caffein % Control ([4]; 6 hrs, 3 mg/ml): 106%
Barrier function % Control ([4]; 6 hrs, 10 mg/ml): 99%
Mean [14C]-caffein (cpm) ([4]; 6 hrs, 10 mg/ml): 181674 cpm
[14C]-caffein % Control ([4]; 6 hrs, 10 mg/ml): 101%
Barrier function % Control ([4]; 7 hrs, 3 mg/ml): 94%
Mean [14C]-caffein (cpm) ([4]; 7 hrs, 3 mg/ml): 199859 cpm
[14C]-caffein % Control ([4]; 7 hrs, 3 mg/ml): 106%
Barrier function % Control ([4]; 7 hrs, 10 mg/ml): 99%
Mean [14C]-caffein (cpm) ([4]; 7 hrs, 10 mg/ml): 190843 cpm
[14C]-caffein % Control ([4]; 7 hrs, 10 mg/ml): 101%
Barrier function % Control ([4]; 8 hrs, 3 mg/ml): 100% and 99%
Barrier function (% L-Proline 3 mg/ml) ([4]; 8 hrs, 3 mg/ml): 104%
Barrier function (% L-Proline 10 mg/ml) ([4]; 8 hrs, 3 mg/ml): 100%
Mean [14C]-caffein (cpm) ([4]; 8 hrs, 3 mg/ml): 193655 cpm and 194941 cpm
[14C]-caffein % Control ([4]; 8 hrs, 3 mg/ml): 100% and 101%
Barrier function % Control ([4]; 8 hrs, 10 mg/ml): 95%
Mean [14C]-caffein (cpm) ([4]; 8 hrs, 10 mg/ml): 203011 cpm
[14C]-caffein % Control ([4]; 8 hrs, 10 mg/ml): 105%
caffein diffusion through RHE ([4]; 3 mg/ml): did not decrease caffein diffusion
caffein diffusion through RHE ([4]; 10 mg/ml): did not decrease caffein diffusion

Source: US20210369583A1, “COMPOSITIONS FOR PROVIDING SKIN CARE BENEFITS AND METHODS OF USE” (Danisco US Inc., priority 2018, published 2021)
